One assay addresses T1, human α7 nAChR (Homo sapiens, UniProt P36544).
T1 construct: expressed in transfected cells
The assay can be described thus: Evaluation of PAM activity with human α7 nACh receptor stably expressing cells (aequorin luminescence, FDSS7000). The assay is classed as cell-based. To be noted: 1 μM test compound (values marked *, footnote of Table 25); ACh at EC20; ratio of RLU (Max-Min) to control wells; read-out: α7PAM (%) @1 μM. The gist of the method:
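Human α7 nAChR stable cells loaded with 4 μM Viviren (final) for 4 h at room temperature in the dark. Compounds in Hanks/20 mM HEPES/0.2% BSA were added and luminescence recorded on FDSS7000. PAM activity = RLU (Max-Min) ratio of test wells to control wells.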
T1 sequence (P36544 23-502): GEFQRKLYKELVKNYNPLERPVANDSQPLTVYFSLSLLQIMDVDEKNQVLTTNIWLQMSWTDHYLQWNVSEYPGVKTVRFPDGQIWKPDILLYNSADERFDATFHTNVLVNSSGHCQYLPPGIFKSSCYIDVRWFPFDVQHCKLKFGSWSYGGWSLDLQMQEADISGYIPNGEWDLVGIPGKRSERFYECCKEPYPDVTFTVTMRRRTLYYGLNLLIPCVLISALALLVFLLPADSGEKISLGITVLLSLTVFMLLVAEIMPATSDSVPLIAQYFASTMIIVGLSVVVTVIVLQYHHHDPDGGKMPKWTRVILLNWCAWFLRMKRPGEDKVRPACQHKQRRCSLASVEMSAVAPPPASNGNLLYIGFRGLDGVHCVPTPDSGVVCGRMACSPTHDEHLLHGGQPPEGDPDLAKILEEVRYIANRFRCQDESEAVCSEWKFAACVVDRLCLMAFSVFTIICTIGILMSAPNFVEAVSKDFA
Consider `N#Cc1c(-c2cc(F)ccc2F)ncn1[C@@H]1C[C@H]2CC[C@@H](C1)N2C(=O)NC1CCC(F)(F)CC1` [Example 423], for which the activity at 1 µM was found to be 390%.
In the case of `O=C(C1CCC(F)(F)CC1)N1[C@@H]2CC[C@H]1C[C@@H](n1cnc(-c3cccc(F)c3F)c1)C2` [Example 429], the activity at 1 µM was 111%.
Turning to `O=C(C1CCC(F)(F)CC1)N1[C@@H]2CC[C@H]1C[C@@H](n1cnc(-c3cc(F)ccc3F)c1)C2` [Example 430], the activity at 1 µM amounted to 110%.
On the same count and under the same terms, the result for `N#Cc1c(-c2ccc(F)cc2F)ncn1[C@H]1C[C@H]2CC[C@@H](C1)N2C(=O)C1CCC(F)(F)CC1` [Example 443] reads 368%; that for `O=C(C1CCC(F)(F)CC1)N1[C@@H]2CC[C@H]1C[C@H](n1cnc(-c3cc(F)ccc3F)c1)C2` [Example 451], 143%; that for `N#Cc1c(-c2cccc(F)c2F)ncn1[C@@H]1C[C@H]2CC[C@@H](C1)N2C(=O)C1CCC(F)(F)CC1` [Example 463], 181%.
In the case of `N#Cc1c(-c2cc(F)ccc2F)ncn1[C@@H]1C[C@H]2CC[C@@H](C1)N2C(=O)C1CCC(F)(F)CC1` [Example 464], the activity at 1 µM turned out to be 124%.

Staying with this assay, now noted: 10 μM test compound; ACh at EC20; ratio of RLU (Max-Min) to control wells; read-out: α7PAM (%) @10 μM.
As for `O=C(NC1CCCCC1)N1CCC(n2cnc(-c3cccc(F)c3)c2)CC1` [Example 1, N-Cyclohexyl-4-[4-(3-fluorophenyl)-1H-imidazol-1-yl]piperidine-1-carboxamide], the activity at 10 µM worked out at 836%.
The same measure, in the same setting: then `CC(C)(F)C(=O)N[C@H]1CC[C@@H](n2cnc(-c3ccc(F)cc3)c2Cl)CC1` [Example 183, N-{cis-4-[5-chloro-4-(4-fluorophenyl)-1H-imidazol-1-yl]cyclohexyl}-2-fluoro-2-methylpropanamide], with 791%; and `CC(C)(F)C(=O)N[C@H]1CC[C@@H](n2cnc(-c3ccc(Cl)cc3)c2)CC1` [Example 280, N-{cis-4-[4-(4-chlorophenyl)-1H-imidazol-1-yl]cyclohexyl}-2-fluoro-2-methylpropanamide], with 787%.
With `O=C(NC1CCCCC1)N1[C@@H]2CC[C@H]1C[C@H](n1cnc(-c3cccc(F)c3F)c1)C2` [Example 410], the activity at 10 µM stood at 197%.
Still for that read-out and setting: then `O=C(NC1CCCCC1)N1[C@@H]2CC[C@H]1C[C@H](n1cnc(-c3cc(F)ccc3F)c1)C2` [Example 411], with 229%; and `O=C(NC1CCC(F)(F)CC1)N1[C@@H]2CC[C@H]1C[C@H](n1cnc(-c3cc(F)ccc3F)c1)C2` [Example 412], with 423%; and `O=C(NC1CCC(F)(F)CC1)N1[C@@H]2CC[C@H]1C[C@H](n1cnc(-c3ccc(F)cc3F)c1Cl)C2` [Example 415], with 997%.
Turning to `O=C(NC1CCC(F)(F)CC1)N1[C@@H]2CC[C@H]1C[C@H](n1cnc(-c3cc(F)ccc3F)c1Cl)C2` [Example 419], the activity at 10 µM came out at 913%.
`N#Cc1c(-c2ccc(F)cc2)ncn1[C@@H]1C[C@H]2CC[C@@H](C1)N2C(=O)NC1CCCCC1` [Example 421]: the activity at 10 µM stood at 426%.
`N#Cc1c(-c2ccc(F)cc2F)ncn1[C@@H]1C[C@H]2CC[C@@H](C1)N2C(=O)NC1CCC(F)(F)CC1` [Example 422]: the activity at 10 µM worked out at 131%.
Same read-out and setting: the result for `N#Cc1c(-c2cccc(F)c2F)ncn1[C@@H]1C[C@H]2CC[C@@H](C1)N2C(=O)NC1CCC(F)(F)CC1` [Example 424] reads 210%; that for `O=C(C1CCC(F)(F)CC1)N1[C@@H]2CC[C@H]1C[C@@H](n1cnc(-c3ccc(F)cc3)c1)C2` [Example 425], 155%; that for `O=C(C1CCC(F)(F)CC1)N1[C@@H]2CC[C@H]1C[C@@H](n1cnc(-c3ccc(F)cc3F)c1)C2` [Example 426], 308%.
On the same count and under the same terms, then `O=C(C1CCC(F)(F)CC1)N1[C@@H]2CC[C@H]1C[C@@H](n1cnc(-c3ccccc3F)c1)C2` [Example 427], with 305%; and `O=C(C1CCC(F)(F)CC1)N1[C@@H]2CC[C@H]1C[C@@H](n1cnc(-c3ccccc3)c1)C2` [Example 428], with 144%.
`O=C(C1CCC(F)(F)CC1)N1[C@@H]2CC[C@H]1C[C@@H](n1cnc(-c3ccc(F)cc3)c1Cl)C2` [Example 431]: the activity at 10 µM was 836%.
On the same count and under the same terms, the result for `O=C(C1CCC(F)(F)CC1)N1[C@@H]2CC[C@H]1C[C@@H](n1cnc(-c3ccccc3F)c1Cl)C2` [Example 434] reads 512%; that for `O=C(C1CCOCC1)N1[C@@H]2CC[C@H]1C[C@@H](n1cnc(-c3ccc(F)cc3F)c1Cl)C2` [Example 436], 300%; that for `O=C(C1CCC(F)(F)CC1)N1[C@@H]2CC[C@H]1C[C@@H](n1cnc(-c3cc(F)ccc3F)c1Cl)C2` [Example 437], 533%.
On to `O=C(C1CCOCC1)N1[C@@H]2CC[C@H]1C[C@@H](n1cnc(-c3cc(F)ccc3F)c1Cl)C2` [Example 438], for which the activity at 10 µM turned out to be 235%.
On the same count and under the same terms, then `O=C(C1CCC(F)(F)CC1)N1[C@@H]2CC[C@H]1C[C@@H](n1cnc(-c3cccc(F)c3F)c1Cl)C2` [Example 439], with 813%; and `O=C(C1CCOCC1)N1[C@@H]2CC[C@H]1C[C@@H](n1cnc(-c3cccc(F)c3F)c1Cl)C2` [Example 440], with 508%.
`N#Cc1c(-c2cc(F)ccc2F)ncn1[C@H]1C[C@H]2CC[C@@H](C1)N2C(=O)C1CCC(F)(F)CC1` [Example 444]: the activity at 10 µM turned out to be 208%.
Same read-out and setting: then `N#Cc1c(-c2cccc(F)c2F)ncn1[C@H]1C[C@H]2CC[C@@H](C1)N2C(=O)C1CCC(F)(F)CC1` [Example 445], with 272%; and `O=C(C1CCC(F)(F)CC1)N1[C@@H]2CC[C@H]1C[C@H](n1cnc(-c3ccc(F)cc3)c1)C2` [Example 446], with 143%; and `O=C(C1CCC(F)(F)CC1)N1[C@@H]2CC[C@H]1C[C@H](n1cnc(-c3ccc(F)cc3F)c1)C2` [Example 447], with 268%.
For the molecule `O=C(C1CCC(F)(F)CC1)N1[C@@H]2CC[C@H]1C[C@H](n1cnc(-c3ccccc3F)c1)C2` [Example 448], the activity at 10 µM was determined as 276%.
Take `O=C(C1CCC(F)(F)CC1)N1[C@@H]2CC[C@H]1C[C@H](n1cnc(-c3ccccc3)c1)C2` [Example 449]: the activity at 10 µM was determined as 183%.
With `O=C(C1CCC(F)(F)CC1)N1[C@@H]2CC[C@H]1C[C@H](n1cnc(-c3cccc(F)c3F)c1)C2` [Example 450], the activity at 10 µM came to 128%.
In the case of `O=C(C1CCC(F)(F)CC1)N1[C@@H]2CC[C@H]1C[C@H](n1cnc(-c3cccc(F)c3F)c1Cl)C2` [Example 457], the activity at 10 µM was found to be 865%.
Turning to `O=C(C1CCOCC1)N1[C@@H]2CC[C@H]1C[C@H](n1cnc(-c3cccc(F)c3F)c1Cl)C2` [Example 458], the activity at 10 µM was 434%.
`O=C(C1CCC(F)(F)CC1)N1[C@@H]2CC[C@H]1C[C@H](n1cnc(-c3cc(F)ccc3F)c1Cl)C2` [Example 459]: the activity at 10 µM stood at 730%.
For the molecule `O=C(C1CCOCC1)N1[C@@H]2CC[C@H]1C[C@H](n1cnc(-c3cc(F)ccc3F)c1Cl)C2` [Example 460], the activity at 10 µM came out at 390%.
As for `N#Cc1c(-c2ccc(F)cc2)ncn1[C@@H]1C[C@H]2CC[C@@H](C1)N2C(=O)C1CCC(F)(F)CC1` [Example 461], the activity at 10 µM was found to be 162%.
The same measure, in the same setting: the result for `N#Cc1c(-c2ccc(F)cc2F)ncn1[C@@H]1C[C@H]2CC[C@@H](C1)N2C(=O)C1CCC(F)(F)CC1` [Example 462] reads 384%.

The assay is the same for the next values; noted with them: comparison across Tables 18 to 25.
As for `O=C(NC1CCOCC1)N1[C@@H]2CC[C@H]1C[C@H](n1cnc(-c3ccc(F)cc3F)c1Cl)C2` [Example 416], the “PAM activity for α7 nAChR (in words)” value is reported as “stronger PAM activity than others”.

For the next assay, the system named is Slc:ddY mice. The assay can be described thus: Novel object recognition test in mice (mORT), evaluation of cognitive function. Conditions: 3 mg/kg (oral), administered prior to the 1st trial, 2nd trial 24 hours after. The assay is classed as in vivo. The procedure:
Evaluation of Cognitive Function with Mice in Novel Object Recognition Test (Hereinafter. Referred to as “mORT”)
Slc:ddY mice (25 to 30 g, male, Japan SLC) can be used in the novel object recognition test wherein the interval between the 1st trial (training) and the 2nd trial (test) correlates with the memory loss for the objects used in the 1st trial, and a significant memory-loss is observed when the 2nd trial is performed 24 hours after the 1st trial. According to the test mechanism, the present compounds were administered prior to the 1st trial, and the enhancement effect on memory in the 2nd trial was evaluated.
As for `O=C(NC1CCCCC1)N1CCC(n2cnc(-c3cccc(F)c3)c2)CC1` [Example 1, N-Cyclohexyl-4-[4-(3-fluorophenyl)-1H-imidazol-1-yl]piperidine-1-carboxamide], the “enhancement effect on memory in the 2nd trial (mORT)” value (“enhancement effect on memory” below) is given as “significant memory enhancing effect”.
On to `CC(C)(F)C(=O)N[C@H]1CC[C@@H](n2cnc(-c3ccc(F)cc3)c2Cl)CC1` [Example 183, N-{cis-4-[5-chloro-4-(4-fluorophenyl)-1H-imidazol-1-yl]cyclohexyl}-2-fluoro-2-methylpropanamide], for which the “enhancement effect on memory” value is “significant memory enhancing effect”.
As for `CC(C)(F)C(=O)N[C@H]1CC[C@@H](n2cnc(-c3ccc(Cl)cc3)c2)CC1` [Example 280, N-{cis-4-[4-(4-chlorophenyl)-1H-imidazol-1-yl]cyclohexyl}-2-fluoro-2-methylpropanamide], the “enhancement effect on memory” value is listed as “significant memory enhancing effect”.
`O=C(NC1CCOCC1)[C@H]1CC[C@@H](n2cnc(-c3ccc(F)c(F)c3)c2Cl)CC1` [Example 370, cis-4-[5-chloro-4-(3,4-difluorophenyl)-1H-imidazol-1-yl]-(tetrahydro-2H-pyran-4-yl)cyclohexanecarboxamide]: the “enhancement effect on memory” value is “significant memory enhancing effect”.
Turning to `O=C(C1CCC(F)(F)CC1)N1[C@@H]2CC[C@H]1C[C@H](n1cnc(-c3ccc(F)cc3)c1Cl)C2` [Example 452, {(3-exo)-3-[5-chloro-4-(4-fluorophenyl)-1H-imidazol-1-yl]-8-azabicyclo[3.2.1]oct-8-yl}(4,4-difluorocyclohexyl)methanone], the “enhancement effect on memory” value was “significant memory enhancing effect”.

The subject of a further assay is Slc:Wistar rats. The assay can be described thus: Y-shaped maze test in rats (Y-maze test), scopolamine-induced cognitive impairment. To be noted: 3 mg/kg (oral), treated prior to 0.6 mg/kg scopolamine HBr s.c. The assay is classed as in vivo. How it is done:
Evaluation on Improvement Against Cognitive Impairment with Rats in Y-Shaped Maze Test (Hereinafter, Referred to as “Y-Maze Test”)
In Y-maze test, 0.6 mg/kg scopolamine HBr (cat#S0929, Sigma Aldrich, Japan) can be subcutaneously administered to Slc:Wistar rats (280 to 300 g, male, Japan SLC) to cause cognitive impairment and decrease the percentage of spontaneous alternation behavior. According to the test mechanism, the present compounds were treated prior to the administration of scopolamine, and the improvement effect on cognitive impairment is evaluated.
On to `O=C(NC1CCCCC1)N1CCC(n2cnc(-c3cccc(F)c3)c2)CC1` [Example 1, N-Cyclohexyl-4-[4-(3-fluorophenyl)-1H-imidazol-1-yl]piperidine-1-carboxamide], for which the “improvement effect on cognitive impairment (Y-maze, spontaneous alternation behavior)” value was “significant improvement effect on memory disorder”.
As for `CC(C)(F)C(=O)N[C@H]1CC[C@@H](n2cnc(-c3ccc(F)cc3)c2Cl)CC1` [Example 183, N-{cis-4-[5-chloro-4-(4-fluorophenyl)-1H-imidazol-1-yl]cyclohexyl}-2-fluoro-2-methylpropanamide], the “improvement effect on cognitive impairment (Y-maze, spontaneous alternation behavior)” value is “significant improvement effect on memory disorder”.

These data come from US20150259344A1, “IMIDAZOLE DERIVATIVE” (DAINIPPON SUMITOMO PHARMA CO., LTD., priority 2012, published 2015).
